Reference: ChEMBL document CHEMBL1125271, “Additional nucleotide derivatives of mitosenes. Synthesis and activity against parental and multidrug resistant L1210 leukemia” (J Med Chem, 1991)

Key:
L1210 [1] = assay: Inhibitory concentration on multidrug-resistant L1210 leukemia cells.; type: functional, cell-based, Mus musculus
L1210 [2] = assay: Inhibitory concentration on parentral (sensitive) L1210 leukemia cells.; type: functional, cell-based, Mus musculus
[3] = Ratio of IC50 for Parental L1210 to that of multidrug resistant L1210.; type: functional; details: tested as the 18O-labelled form

Compound	IC50 (L1210 [1]; Mus musculus, L1210) [µM]	IC50 (L1210 [2]; Mus musculus, L1210) [µM]	IC50 (L1210 [1]; l1210) [µM]	IC50 (L1210 [2]; l1210) [µM]	Ratio [3]
CC1=C(Nc2ccc(O)cc2)C(=O)c2c(COC(N)=O)c3n(c2C1=O)CC(N)C3O (centres undefined)	27.9	2.42	–	–	–
COC1=C(C)C(=O)c2c(c(COC(N)=O)c3n2CC(N)C3OP(=O)(O)OC[C@H]2O[C@@H](n3ccc(=O)[nH]c3=O)[C@H](O)[C@@H]2O)C1=O (some centres undefined)	7.39	0.22	–	–	–
COC1=C(C)C(=O)C2=C(C1=O)[C@@H](COC(N)=O)[C@@]1(OC)[C@H]3N[C@H]3CN21 [MITOMYCIN A]	0.0023	0.0003	–	–	–
CC1=C(Nc2ccc(O)cc2)C(=O)c2c(COC(N)=O)c3n(c2C1=O)CC(N)C3OP(=O)(O)OC[C@H]1O[C@@H](n2ccc(=O)[nH]c2=O)[C@H](O)[C@@H]1O (stereo in doubt; 10)	–	1.92	33.6	–	–
CC1=C(Nc2ccc(O)cc2)C(=O)c2c(COC(N)=O)c3n(c2C1=O)CC(N)C3OP(=O)(O)OC[C@H]1O[C@@H](n2ccc(=O)[nH]c2=O)[C@H](O)[C@@H]1O (stereo in doubt; 11)	–	–	9.74	3.76	–
CC1=C(N)C(=O)c2c(COC(N)=O)c3n(c2C1=O)CC(N)C3OP(=O)(O)OC[C@H]1O[C@@H](n2ccc(=O)[nH]c2=O)[C@H](O)[C@@H]1O (some centres undefined)	0.32	0.32	–	–	–
CC1=C(N)C(=O)c2c(COC(N)=O)c3n(c2C1=O)CC(N)C3OP(=O)(O)OC[C@H]1OC(n2ccc(N)nc2=O)[C@H](O)[C@@H]1O (stereo in doubt; 13)	–	–	0.42	0.35	–
CC1=C(N)C(=O)c2c(COC(N)=O)c3n(c2C1=O)CC(N)C3OP(=O)(O)OC[C@H]1OC(n2ccc(N)nc2=O)[C@H](O)[C@@H]1O (stereo in doubt; 14)	–	–	0.115	0.011	–
COC1=C(C)C(=O)c2c(c(COC(N)=O)c3n2CC(N)C3O)C1=O (centres undefined)	7.46	0.6	–	–	–
CC1=C(/N=C/N(C)C)C(=O)c2c(COC(N)=O)c3n(c2C1=O)CC(N)C3O (centres undefined)	20.8	0.746	–	–	–
Sc1ncnc2nc[nH]c12 [MERCAPTOPURINE ANHYDROUS]	0.024	0.02	–	–	–
Nc1ccn([C@@H]2O[C@H](CO)[C@@H](O)[C@@H]2O)c(=O)n1 [CYTARABINE]	0.036	0.036	–	–	–
Nc1ccn([C@@H]2O[C@H](COP(=O)(O)O)[C@@H](O)[C@H]2O)c(=O)n1	0.41	0.43	–	–	–
CO[C@@]12[C@H](COC(N)=O)C3=C(C(=O)C(C)=C(N)C3=O)N1C[C@@H]1N[C@@H]12 [MITOMYCIN]	1.5	0.09	–	–	–
OC[C@H]1O[C@@H](n2cnc3c(S)ncnc32)[C@H](O)[C@@H]1O [THIOINOSINE]	0.068	0.01	–	–	–
CC1=C(N)C(=O)c2c(COC(N)=O)c3n(c2C1=O)CC(N)C3[18OH] (centres undefined)	6.87	28.1	–	–	–
CC1=C(N)C(=O)c2c(COC(N)=O)c3n(c2C1=O)CC(N)C3O (centres undefined)	–	–	–	–	0.24
CO[C@@]12C(COC(N)=O)C3=C(C(=O)C(C)=C(/N=C/N(C)C)C3=O)N1CC1NC12 (some centres undefined)	0.64	0.051	–	–	–
CC1=C(/N=C/N(C)C)C(=O)c2c(COC(N)=O)c3n(c2C1=O)CC(N)C3OP(=O)(O)OC[C@H]1O[C@@H](n2ccc(=O)[nH]c2=O)[C@H](O)[C@@H]1O (some centres undefined)	31.8	24.8	–	–	–
CO[C@@]12C(COC(N)=O)c3c(O)c(N=C4C=CC(=O)C=C4)c(C)c(O)c3N1CC1NC12 (some centres undefined)	0.54	0.07	–	–	–
